The source of these data is PubChem BioAssay AID256 (DTP/NCI, 2004).

Structures are written as SMILES. Toxic doses and inconclusive results are not listed.

This assay has as its system CD2F1 mice, L1210 leukemia ip, survival T/C. Description: NCI In Vivo Anticancer Drug Screen. Data for tumor model L1210 Leukemia (intraperitoneal) in CD2F1 (CDF1) mice. The following applies: higher = longer survival. An outline of the steps:
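Implant tumor; dose compound or vehicle; measure endpoint in both groups; report treated divided by control.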

Setting [1] is: endpoint: mean survival time, dose: 100.0 mg/kg/injection, schedule: Q01DX009 (ip), vehicle: saline with Tween-80.
The mark [2] stands for this setting: endpoint: mean survival time, dose: 100.0 mg/kg/injection, schedule: Q04DX003 (ip), vehicle: saline with Tween-80.
The mark [3] stands for this setting: endpoint: mean survival time, dose: 200.0 mg/kg/injection, schedule: Q01DX009 (ip), vehicle: saline with Tween-80.
[4] abbreviates: endpoint: mean survival time, dose: 200.0 mg/kg/injection, schedule: Q04DX003 (ip), vehicle: saline with Tween-80.
[5] abbreviates: endpoint: mean survival time, dose: 400.0 mg/kg/injection, schedule: Q01DX009 (ip), vehicle: saline with Tween-80.
The mark [6] stands for this setting: endpoint: mean survival time, dose: 400.0 mg/kg/injection, schedule: Q04DX003 (ip), vehicle: saline with Tween-80.
Where [7] appears, read: endpoint: mean survival time, dose: 75.0 mg/kg/injection, schedule: Q01DX001 (ip), vehicle: saline.
Setting [8] is: endpoint: mean survival time, dose: 50.0 mg/kg/injection, schedule: Q01DX009 (ip), vehicle: saline with Tween-80.

For the molecule `COC1=CC(c2ccccc2[N+](=O)[O-])OC1=O` (stereo not given), the T/C by setting is: under setting [1], 97 % of control; under setting [2], 96 % of control; under setting [3], 91 % of control; under setting [4], 91 % of control; under setting [5], 91 % of control; under setting [6], 93 % of control.
In the case of `CN(C)c1ccc(/C=C2\C=Nc3ccccc32)cc1`, the T/C was 87 % of control (endpoint: mean survival time, dose: 25.0 mg/kg/injection, schedule: Q04DX003 (ip), vehicle: saline with Tween-80) and 87 % of control under setting [2].
On to `OCC1C2C=CC1CC2` (stereo not given), for which the T/C by setting is: under setting [2], 95 % of control; under setting [4], 96 % of control; under setting [6], 96 % of control.
For `CS(=O)(=O)N1CCCCC1`, under setting [7], the T/C was 100 % of control.
On to `O=C(c1ccccc1Br)C(Br)C(Br)c1ccccc1` (stereo not given), for which the T/C was 103 % of control under setting [2], 111 % of control under setting [4] and 100 % of control under setting [6].
With `CN(C)c1ccc(/C=N/Nc2ncnc(Cl)c2N)cc1`, the T/C is, setting by setting: (endpoint: mean survival time, dose: 100.0 mg/kg/injection, schedule: Q01DX001 (ip), vehicle: carboxymethylcellulose (CMC)) 98 % of control; (endpoint: mean survival time, dose: 200.0 mg/kg/injection, schedule: Q01DX001 (ip), vehicle: carboxymethylcellulose (CMC)) 91 % of control; (endpoint: mean survival time, dose: 400.0 mg/kg/injection, schedule: Q01DX001 (ip), vehicle: carboxymethylcellulose (CMC)) 95 % of control.
In the case of `CC[C@]12CN3CCc4c([nH]c5ccccc45)[C@@](C(=O)OC)(c4cc5c(cc4OC)N(C)[C@H]4[C@@](O)(C(=O)OC)[C@H](OC(C)=O)[C@]6(CC)C=CCN7CC[C@]54[C@@H]76)CC(C3)[C@H]1O2` (stereo not given in full), the T/C (endpoint: mean survival time, dose: 1.5 mg/kg/injection, schedule: Q01DX009 (ip), vehicle: Klucel (hydroxypropylcellulose) (HPC)) is 106 % of control; the T/C (endpoint: mean survival time, dose: 3.0 mg/kg/injection, schedule: Q01DX009 (ip), vehicle: Klucel (hydroxypropylcellulose) (HPC)) is 108 % of control; the T/C (endpoint: mean survival time, dose: 6.0 mg/kg/injection, schedule: Q01DX009 (ip), vehicle: Klucel (hydroxypropylcellulose) (HPC)) was 110 % of control; the T/C (endpoint: mean survival time, dose: 6.25 mg/kg/injection, schedule: Q04DX003 (ip), vehicle: saline) is 111 % of control; the T/C (endpoint: mean survival time, dose: 12.0 mg/kg/injection, schedule: Q01DX009 (ip), vehicle: Klucel (hydroxypropylcellulose) (HPC)) is 112 % of control; the T/C (endpoint: mean survival time, dose: 12.5 mg/kg/injection, schedule: Q04DX003 (ip), vehicle: saline) was 120 % of control. The T/C runs as follows: (endpoint: median survival time, dose: 1.0 mg/kg/injection, schedule: Q03HX008 (ip), vehicle: saline) 100 % of control; (endpoint: median survival time, dose: 1.0 mg/kg/injection, schedule: Q03HX016 (ip), vehicle: saline) 100 % of control; (endpoint: median survival time, dose: 1.0 mg/kg/injection, schedule: Q03HX024 (ip), vehicle: saline) 100 % of control; (endpoint: median survival time, dose: 2.0 mg/kg/injection, schedule: Q03HX008 (ip), vehicle: saline) 110 % of control; (endpoint: median survival time, dose: 2.0 mg/kg/injection, schedule: Q03HX016 (ip), vehicle: saline) 120 % of control; (endpoint: median survival time, dose: 2.0 mg/kg/injection, schedule: Q03HX024 (ip), vehicle: saline) 120 % of control. For the same molecule, the T/C is 110 % of control (endpoint: median survival time, dose: 4.0 mg/kg/injection, schedule: Q01DX009 (ip), vehicle: saline); 100 % of control (endpoint: median survival time, dose: 4.0 mg/kg/injection, schedule: Q04DX003 (ip), vehicle: saline); 100 % of control (endpoint: median survival time, dose: 8.0 mg/kg/injection, schedule: Q01DX001 (ip), vehicle: saline); 105 % of control (endpoint: median survival time, dose: 8.0 mg/kg/injection, schedule: Q04DX003 (ip), vehicle: saline); 115 % of control (endpoint: median survival time, dose: 8.0 mg/kg/injection, schedule: Q08DX002 (ip), vehicle: saline); 110 % of control (endpoint: median survival time, dose: 16.0 mg/kg/injection, schedule: Q01DX001 (ip), vehicle: saline). Besides, the T/C (endpoint: median survival time, dose: 16.0 mg/kg/injection, schedule: Q01DX009 (ip), vehicle: saline) was 100 % of control; the T/C (endpoint: median survival time, dose: 16.0 mg/kg/injection, schedule: Q08DX002 (ip), vehicle: saline) was 110 % of control; the T/C (endpoint: median survival time, dose: 32.0 mg/kg/injection, schedule: Q01DX001 (ip), vehicle: saline) was 110 % of control.
Turning to `COc1cc(Cl)ccc1NC(=O)OCCOc1ccc(C(C)(C)C)cc1`, the T/C under setting [8] is 103 % of control, the T/C under setting [1] was 95 % of control and the T/C under setting [3] was 95 % of control.
With `C/C=C(\C)C(C)O` (stereo not given), the T/C runs as follows: (endpoint: mean survival time, dose: 50.0 mg/kg/injection, schedule: Q01DX005 (ip), vehicle: saline) 87 % of control; under setting [8], 98 % of control; (endpoint: mean survival time, dose: 50.0 mg/kg/injection, schedule: Q04DX002 (ip), vehicle: saline + alcohol) 92 % of control; (endpoint: mean survival time, dose: 100.0 mg/kg/injection, schedule: Q01DX005 (ip), vehicle: saline) 102 % of control; under setting [1], 98 % of control; (endpoint: mean survival time, dose: 100.0 mg/kg/injection, schedule: Q04DX002 (ip), vehicle: saline + alcohol) 103 % of control. Besides, the T/C by setting is: (endpoint: mean survival time, dose: 200.0 mg/kg/injection, schedule: Q01DX005 (ip), vehicle: saline) 94 % of control; under setting [3], 95 % of control; (endpoint: mean survival time, dose: 200.0 mg/kg/injection, schedule: Q04DX002 (ip), vehicle: saline + alcohol) 101 % of control; (endpoint: mean survival time, dose: 400.0 mg/kg/injection, schedule: Q01DX005 (ip), vehicle: saline) 94 % of control; under setting [5], 102 % of control; (endpoint: mean survival time, dose: 400.0 mg/kg/injection, schedule: Q04DX002 (ip), vehicle: saline + alcohol) 103 % of control.
In the case of `O=NN(CCCl)C(=O)NC1CSCSC1`, the T/C reads like this: (endpoint: mean survival time, dose: 6.0 mg/kg/injection, schedule: Q01DX001 (ip), vehicle: saline with Tween-80) 164 % of control; (endpoint: mean survival time, dose: 9.0 mg/kg/injection, schedule: Q01DX001 (ip), vehicle: saline with Tween-80) 297 % of control; (endpoint: mean survival time, dose: 13.0 mg/kg/injection, schedule: Q01DX001 (ip), vehicle: saline with Tween-80) 331 % of control; (endpoint: mean survival time, dose: 20.0 mg/kg/injection, schedule: Q01DX001 (ip), vehicle: saline with Tween-80) 352 % of control; (endpoint: mean survival time, dose: 30.0 mg/kg/injection, schedule: Q01DX001 (ip), vehicle: saline with Tween-80) 344 % of control.
As for `C=CCOC(=O)Nc1ccc(S(=O)(=O)N(CCC)CCC)cc1`, the T/C is 103 % of control (endpoint: mean survival time, dose: 100.0 mg/kg/injection, schedule: Q01DX001 (ip), vehicle: saline); 101 % of control (endpoint: mean survival time, dose: 200.0 mg/kg/injection, schedule: Q01DX001 (ip), vehicle: saline); 89 % of control (endpoint: mean survival time, dose: 400.0 mg/kg/injection, schedule: Q01DX001 (ip), vehicle: saline).
Consider `C=CC(=O)CCCC(=O)O`, for which the T/C under setting [1] was 100 % of control, the T/C under setting [3] was 102 % of control and the T/C under setting [5] was 104 % of control.
Regarding `O=[N+]([O-])c1ccc2c(N=Nc3c(O)ccc4ccccc34)c(O)cc(S(=O)(=O)O)c2c1`, the T/C (endpoint: mean survival time, dose: 50.0 mg/kg/injection, schedule: Q01DX009 (ip), vehicle: saline) was 119 % of control; the T/C (endpoint: mean survival time, dose: 100.0 mg/kg/injection, schedule: Q01DX009 (ip), vehicle: saline) was 100 % of control; the T/C (endpoint: mean survival time, dose: 200.0 mg/kg/injection, schedule: Q01DX009 (ip), vehicle: saline) is 109 % of control.
In the case of `Cc1ccc(OCCOc2ccc(C(=O)O)cc2)cc1`, the T/C (endpoint: mean survival time, dose: 7.5 mg/kg/injection, schedule: Q01DX009 (ip), vehicle: Klucel (hydroxypropylcellulose) (HPC)) was 100 % of control; the T/C (endpoint: mean survival time, dose: 15.0 mg/kg/injection, schedule: Q01DX009 (ip), vehicle: Klucel (hydroxypropylcellulose) (HPC)) was 98 % of control; the T/C (endpoint: mean survival time, dose: 30.0 mg/kg/injection, schedule: Q01DX009 (ip), vehicle: Klucel (hydroxypropylcellulose) (HPC)) was 96 % of control.
Consider `Cc1ccc(NC(=O)Nc2cccc(-n3cnc4c(=O)[nH]c(N)nc43)c2)cc1S(=O)(=O)F`, for which the T/C is 86 % of control (endpoint: mean survival time, dose: 100.0 mg/kg/injection, schedule: Q01DX001 (ip), vehicle: saline with Tween-80); 88 % of control (endpoint: mean survival time, dose: 200.0 mg/kg/injection, schedule: Q01DX001 (ip), vehicle: saline with Tween-80); 89 % of control (endpoint: mean survival time, dose: 400.0 mg/kg/injection, schedule: Q01DX001 (ip), vehicle: saline with Tween-80).
For the molecule `FC1(F)C(Cl)=[C]([Hg][C]2=C(Cl)C(F)(F)C(F)(F)C2(F)F)C(F)(F)C1(F)F`, the T/C under setting [7] is 98 % of control.
